pIC50: −log10 of the molar value.
Tests used:
Beta-secretase 1 [1] = target: T1, Beta-secretase 1 (Homo sapiens, UniProt P56817); assay: Inhibition of BACE1 by diluted TR-FRET assay
Beta-secretase 1 [2] = target: T1, Beta-secretase 1; assay: Inhibition of BACE1 by secreted AAPbeta release assay

T1 sequence (P56817 whole entry): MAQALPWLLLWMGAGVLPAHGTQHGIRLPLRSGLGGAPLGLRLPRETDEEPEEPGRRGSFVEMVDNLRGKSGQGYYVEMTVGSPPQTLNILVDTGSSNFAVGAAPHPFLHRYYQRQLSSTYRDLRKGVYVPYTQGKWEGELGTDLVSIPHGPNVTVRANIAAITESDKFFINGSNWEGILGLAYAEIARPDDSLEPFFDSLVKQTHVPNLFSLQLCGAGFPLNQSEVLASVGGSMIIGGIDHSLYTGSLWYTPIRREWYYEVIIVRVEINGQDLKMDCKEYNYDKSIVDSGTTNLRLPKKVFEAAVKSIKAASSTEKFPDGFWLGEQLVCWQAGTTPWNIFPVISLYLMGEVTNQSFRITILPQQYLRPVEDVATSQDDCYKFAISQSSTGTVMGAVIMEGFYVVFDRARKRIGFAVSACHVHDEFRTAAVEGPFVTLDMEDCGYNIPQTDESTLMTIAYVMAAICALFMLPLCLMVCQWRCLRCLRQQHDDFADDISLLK

CCn1cc([C@]2(c3cccc(-c4cncc(C#N)c4)c3)N=C(N)c3c(F)cccc32)cc(C)c1=O
pIC50 (Beta-secretase 1 [1]): 8.10
pIC50 (Beta-secretase 1 [2]): 8.70

CC#Cc1ccnc(-c2cccc([C@@]3(c4cc(C)c(=O)n(CC)c4)N=C(N)c4c(F)cccc43)c2)c1
pIC50 (Beta-secretase 1 [2]): 8.70

CC#Cc1cncc(-c2cccc([C@@]3(c4cc(C(F)F)c(=O)n(CC)c4)N=C(N)c4c(F)cccc43)c2)c1
pIC50 (Beta-secretase 1 [1]): 8.22
pIC50 (Beta-secretase 1 [2]): 8.40

Source: ChEMBL document CHEMBL2151027, “BACE Inhibitors: Potential Treatment of Alzheimer's Disease, Dementia, and Related Neurodegenerative Disorders (B): 3-Amino-4-fluoro-1H-isoindol Derivatives: Patent Highlight” (ACS Med Chem Lett, 2012)
